# Assay results as given in publication PMC8076852 (Frontiers in Molecular Biosciences, 2021).
# Legend:
# NCCCNCCCCNCCCN = experiment: purified protein; details: pH 8.0; 37.0 °C
# R1C1 = system: T1, R1C1
# T1 construct: gene speG
# R3C2 = system: T2, R3C2
# T2 construct: gene speG
# R1C2 = system: T3, R1C2
# T3 construct: gene speG
# R1C3 = system: T4, R1C3
# T4 construct: gene speG
Compound,K0.5 (NCCCNCCCCNCCCN),Km (R1C1),Km (R3C2),Km (R1C2),Km (R1C3)
(Vibrio cholerae O1 biovar El Tor str. N16961),0.222 ± 0.005 mM,,,,
NCCCNCCCCNCCCN [spermine],,2530 ± 710 µM,98 ± 8 µM,364 ± 8 µM,244 ± 20 µM
